Measured values from patent publication US20130029970A1 (priority 2009, published 2013).

What was measured:
[1] = molecular target: T1, human CB2 receptors (Homo sapiens, UniProt P34972); experiment: cAMP assay in HEK-293 cells, hCB2 agonist; format: cell-based; details: inhibition of forskolin-stimulated cAMP, HEK-293 cells; read-out: hCB2 EC50 (cAMP ag)
T1 construct: (cDNA clone) CNR0200000
How it was run: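 Stable hCB2 HEK-293 cells in HBSS/10 mM HEPES/0.1% fatty-acid-free BSA incubated 30 min at 37° C with compound; forskolin 90 uM in 3× compound mix.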

[2] = molecular target: T2, recombinant human cannabinoid receptor CB1 (Homo sapiens, UniProt P21554); experiment: Cannabinoid receptor radioligand binding assay, [3H]-CP 55,940 displacement, hCB1
T2 construct: (cDNA clone) CNR01L000
How it was run: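 Displacement of 0.5 nM [3H]-CP 55,940 (1 μM unlabeled CP 55,940 for nonspecific) measured by filtration and scintillation counting. Binding ran 90 min at room temperature in pH 7.5 Tris buffer with 0.1% fatty-acid-free BSA, using recombinant hCB1 HEK-293 membranes at 2-10 μg protein.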

[3] = molecular target: T3, recombinant human cannabinoid receptor CB2 (Homo sapiens, UniProt P34972); experiment: Cannabinoid receptor radioligand binding assay, [3H]-CP 55,940 displacement, hCB2
T3 construct: (cDNA clone) CNR0200000
How it was run: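 Receptor source: membrane pellet (40,000×g) from transfected cells, stored in HEPES pH 7.4/MgCl2/EDTA/sucrose buffer.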

T1 sequence (P34972 whole entry): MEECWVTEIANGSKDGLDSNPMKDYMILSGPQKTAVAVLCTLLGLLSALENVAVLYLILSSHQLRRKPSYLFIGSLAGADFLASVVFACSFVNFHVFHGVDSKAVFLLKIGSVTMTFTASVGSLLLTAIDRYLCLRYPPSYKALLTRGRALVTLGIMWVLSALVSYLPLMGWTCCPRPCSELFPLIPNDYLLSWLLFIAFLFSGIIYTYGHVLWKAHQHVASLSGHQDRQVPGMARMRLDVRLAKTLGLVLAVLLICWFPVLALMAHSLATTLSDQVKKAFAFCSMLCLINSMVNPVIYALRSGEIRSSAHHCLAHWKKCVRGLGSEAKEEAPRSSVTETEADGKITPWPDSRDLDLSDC
T3 sequence (P34972 whole entry): as above
T2 sequence (P21554 whole entry): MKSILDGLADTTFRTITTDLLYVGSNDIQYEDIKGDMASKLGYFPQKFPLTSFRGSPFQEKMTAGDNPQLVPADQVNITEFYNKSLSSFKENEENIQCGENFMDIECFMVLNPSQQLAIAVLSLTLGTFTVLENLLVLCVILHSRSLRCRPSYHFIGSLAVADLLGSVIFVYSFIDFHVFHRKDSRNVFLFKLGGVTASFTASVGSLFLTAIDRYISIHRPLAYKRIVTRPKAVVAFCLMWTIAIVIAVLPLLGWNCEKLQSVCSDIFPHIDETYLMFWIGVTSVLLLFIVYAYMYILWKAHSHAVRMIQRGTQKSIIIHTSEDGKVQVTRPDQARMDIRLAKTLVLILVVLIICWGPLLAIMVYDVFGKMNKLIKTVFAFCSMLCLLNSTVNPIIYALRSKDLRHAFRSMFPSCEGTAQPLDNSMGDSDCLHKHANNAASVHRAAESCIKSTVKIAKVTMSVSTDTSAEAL

| SMILES | EC50 [1] | IC50 [2] | IC50 [3] |
| --- | --- | --- | --- |
| COc1ccc(C(=O)c2cc3cc(C)n(CCN4CCOCC4)c3s2)c(Cl)c1 [Compound 70, (2-Chloro-4-methoxyphenyl)(5-methyl-6-(2-morpholinoethyl)-6H-thieno[2,3-b]pyrrol-2-yl)methanone] | < 100 nM | 100 to 1000 nM | < 100 nM |
| COc1ccc(C(=O)c2cc3cc(C)n(CCN4CCCCC4)c3s2)cc1 [Compound 78, (4-Methoxyphenyl)(5-methyl-6-(2-(piperidin-1-yl)ethyl)-6H-thieno[2,3-b]pyrrol-2-yl)methanone] | < 100 nM | 1000 to 10000 nM | < 100 nM |
| COc1ccc(C(=O)c2cc3cc(C)n(CCC4CCOCC4)c3s2)cc1 [Compound 82, (4-Methoxyphenyl)(5-methyl-6-(2-(tetrahydro-2H-pyran-4-yl)ethyl)-6H-thieno[2,3-b]pyrrol-2-yl)methanone] | < 100 nM | 100 to 1000 nM | < 100 nM |
| COc1ccc(C(=O)c2cc3cc(C)n(Cc4ccccc4)c3s2)cc1 [Compound 84, (6-Benzyl-5-methyl-6H-thieno[2,3-b]pyrrol-2-yl)(4-methoxyphenyl)methanone] | < 100 nM | 1000 to 10000 nM | 100 to 1000 nM |
| COc1ccc(C(=O)c2cc3cc(C)n(CCCCl)c3s2)c(Cl)c1 [Compound 85, (2-Chloro-4-methoxyphenyl)(6-(3-chloropropyl)-5-methyl-6H-thieno[2,3-b]pyrrol-2-yl)methanone] | < 100 nM | 1000 to 10000 nM | < 100 nM |
| COc1ccc(C(=O)c2cc3cc(C)n(CCCNS(C)(=O)=O)c3s2)c(F)c1 [Compound 87, N-(3-(2-(2-Fluoro-4-methoxybenzoyl)-5-methyl-6H-thieno[2,3-b]pyrrol-6-yl)propyl)methanesulfonamide] | < 100 nM | > 10000 nM | 100 to 1000 nM |
| COc1ccc(C(=O)c2cc3cc(C)n(CCCNS(C)(=O)=O)c3s2)c(Cl)c1 [Compound 91, N-(3-(2-(2-Chloro-4-methoxybenzoyl)-5-methyl-6H-thieno[2,3-b]pyrrol-6-yl)propyl)methanesulfonamide] | < 100 nM | > 10000 nM | < 100 nM |
| COc1ccc(C(=O)c2cc3cc(C)n(CCN4CCOCC4)c3s2)c(C(F)(F)F)c1 [Compound 119, (4-Methoxy-2-(trifluoromethyl)phenyl)(5-methyl-6-(2-morpholinoethyl)-6H-thieno[2,3-b]pyrrol-2-yl)methanone] | < 100 nM | 1000 to 10000 nM | < 100 nM |
| COc1ccc(C(=O)c2cc3cc(C)n(CCN4CCOCC4)c3s2)c(OC)c1 [Compound 120, (2,4-Dimethoxyphenyl)(5-methyl-6-(2-morpholinoethyl)-6H-thieno[2,3-b]pyrrol-2-yl)methanone] | < 100 nM | 100 to 1000 nM | < 100 nM |
| Cc1ccc(C(=N)c2cc3cc(C)n(CCN4CCOCC4)c3s2)cc1 [Compound 121, (5-methyl-6-(2-morpholinoethyl)-6H-thieno[2,3-b]pyrrol-2-yl)(p-tolyl)methanimine] | < 100 nM | 1000 to 10000 nM | 100 to 1000 nM |
| CCOc1ccc(C(=O)c2cc3cc(C)n(CCN4CCOCC4)c3s2)c(Cl)c1 [Compound 126, (2-chloro-4-ethoxyphenyl)(5-methyl-6-(2-morpholinoethyl)-6H-thieno[2,3-b]pyrrol-2-yl)methanone] | < 100 nM | 100 to 1000 nM | < 100 nM |
| COc1ccc(C(=O)c2cc3cc(C)n(CCN4CCOCC4)c3s2)cc1F [Compound 128, (3-fluoro-4-methoxyphenyl)(5-methyl-6-(2-morpholinoethyl)-6H-thieno[2,3-b]pyrrol-2-yl)methanone] | 100 to 1000 nM | 1000 to 10000 nM | 100 to 1000 nM |
| Cc1cc2cc(C(=O)c3ccc(C#N)cc3)sc2n1CCN1CCOCC1 [Compound 129, 4-(5-methyl-6-(2-morpholinoethyl)-6H-thieno[2,3-b]pyrrole-2-carbonyl)benzonitrile] | 100 to 1000 nM | 1000 to 10000 nM | 100 to 1000 nM |
